Literature values as cited in US20170326154A1, “Pre-Operative Composition for Sedation or Analgesia” (priority 2016, published 2017).
Read-outs that look alike come from different tables or passages of the source.

Experiments:
[1] = basic drug, nitrogen atom in the imidazole ring

For Cc1ncc2n1-c1ccc(Cl)cc1C(c1ccccc1F)=NC2 [Midazolam, 8-chloro-6-(2′-fluorophenyl)-1-methyl-4H-imidazo[1,5-a][1,4]-benzodiazepine], the “adequate sedation within (time)” value (intranasal administration) is given as 10 to 15 min, the “adequate sedation within (time)” value (oral administration) is given as 10 to 20 min and the pKa value [1] is given as 5.5 and 6.2.
